From ChEMBL document CHEMBL1201862, “PubChem BioAssay data set” (2004)
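Briefly, cells in 96-well plates were exposed to five compound concentrations for 48 h, and endpoints were estimated by linear interpolation. GI50 marks 50% less growth.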 Calls of active or inactive are those of the source. No stated cut-off is given here; in the data, active = GI50 up to about 1.1 µM and inactive = higher.

Columns and labels:
Assay in all cases: DTP human tumour cell line panel, 48 h
SK-MEL-2 = system: SK-MEL-2
OVCAR-3 = system: OVCAR-3
ACHN = system: ACHN
SW-620 = system: SW-620
OVCAR-4 = system: OVCAR-4
A498 = system: A498
SF-295 = system: SF-295
U-251 = system: U-251
HCT-116 = system: HCT-116
SK-MEL-5 = system: SK-MEL-5
OVCAR-8 = system: OVCAR-8
HOP-92 = system: HOP-92
DMS-273 = system: DMS-273
786-0 = system: 786-0
COLO 205 = system: COLO 205
SN12C = system: SN12C
MDA-MB-231 = system: MDA-MB-231
BT-549 = system: BT-549
PC-3 = system: PC-3
NCI/ADR-RES = system: NCI/ADR-RES

| Compound | GI50 (SK-MEL-2) | GI50 (OVCAR-3) | GI50 (ACHN) | GI50 (SW-620) | GI50 (OVCAR-4) | GI50 (A498) | GI50 (SF-295) | GI50 (U-251) | GI50 (HCT-116) | GI50 (SK-MEL-5) | GI50 (OVCAR-8) | GI50 (HOP-92) | GI50 (DMS-273) | GI50 (786-0) | GI50 (COLO 205) | GI50 (SN12C) | GI50 (MDA-MB-231) | GI50 (BT-549) | GI50 (PC-3) | GI50 (NCI/ADR-RES) |
| --- | --- | --- | --- | --- | --- | --- | --- | --- | --- | --- | --- | --- | --- | --- | --- | --- | --- | --- | --- | --- |
| O=C1c2cccc3cc([N+](=O)[O-])cc(c23)C(=O)N1NC1=NCCN1 | > 100 µM (inactive) | > 100 µM (inactive) | > 100 µM (inactive) | > 100 µM (inactive) | > 100 µM (inactive) | > 100 µM (inactive) | > 100 µM (inactive) | > 100 µM (inactive) | > 100 µM (inactive) | > 100 µM (inactive) | > 100 µM (inactive) | > 100 µM (inactive) | > 100 µM (inactive) | > 100 µM (inactive) | > 100 µM (inactive) | > 100 µM (inactive) | – | – | – | – |
| O=C1c2ccccc2C(=O)c2sc(Nc3ccc(Cl)c(Cl)c3)nc21 | 8.26 µM (inactive) | 2.49 µM (inactive) | 1.75 µM (inactive) | 1.61 µM (inactive) | 2.21 µM (inactive) | 16.6 µM (inactive) | 15.2 µM (inactive) | 2.43 µM (inactive) | 3 µM (inactive) | 2.32 µM (inactive) | 3.7 µM (inactive) | 13.3 µM (inactive) | 5.3 µM (inactive) | 1.82 µM (inactive) | 8 µM (inactive) | 1.83 µM (inactive) | 2.17 µM (inactive) | – | – | – |
| CSc1nc2c(c(O)c(C)c(=O)n2C2OC(COC(C)=O)C(OC(C)=O)C(OC(C)=O)C2OC(C)=O)c(=O)n1C (configuration not stated) | > 100 µM (inactive) | > 100 µM (inactive) | > 100 µM (inactive) | > 100 µM (inactive) | > 100 µM (inactive) | > 100 µM (inactive) | > 100 µM (inactive) | > 100 µM (inactive) | > 100 µM (inactive) | > 100 µM (inactive) | > 100 µM (inactive) | > 100 µM (inactive) | > 100 µM (inactive) | > 100 µM (inactive) | > 100 µM (inactive) | > 100 µM (inactive) | – | – | – | – |
| N=C1OC(c2cccc(Cl)c2)C(NNS(=O)(=O)c2ccccc2)=C1O (configuration not stated) | 24.9 µM (inactive) | 23.1 µM (inactive) | 31.6 µM (inactive) | 12.8 µM (inactive) | 52.5 µM (inactive) | > 100 µM (inactive) | 57 µM (inactive) | 33.3 µM (inactive) | 21.3 µM (inactive) | 41.7 µM (inactive) | 30.5 µM (inactive) | 23.6 µM (inactive) | 32.4 µM (inactive) | 24.8 µM (inactive) | 13.2 µM (inactive) | 44.7 µM (inactive) | 18.2 µM (inactive) | 37 µM (inactive) | 21.2 µM (inactive) | – |
| ON=C1CCC(c2ccccc2)CC1 (configuration not stated) | > 100 µM (inactive) | > 100 µM (inactive) | > 100 µM (inactive) | > 100 µM (inactive) | > 100 µM (inactive) | > 100 µM (inactive) | > 100 µM (inactive) | > 100 µM (inactive) | > 100 µM (inactive) | > 100 µM (inactive) | > 100 µM (inactive) | > 100 µM (inactive) | > 100 µM (inactive) | > 100 µM (inactive) | > 100 µM (inactive) | > 100 µM (inactive) | – | – | – | – |
| CN1CCC(=O)/C(=C/c2ccccc2)C1 | 20.5 µM (inactive) | 11.6 µM (inactive) | 17.9 µM (inactive) | 4.99 µM (inactive) | 17.9 µM (inactive) | 18.5 µM (inactive) | 15.4 µM (inactive) | 6.44 µM (inactive) | 1.78 µM (inactive) | 17.9 µM (inactive) | 22 µM (inactive) | 17.5 µM (inactive) | 6.55 µM (inactive) | 12.5 µM (inactive) | 13.7 µM (inactive) | 14.7 µM (inactive) | – | – | – | – |
| O=C(O)COc1ccc(C(=O)/C(SS/C(C(=O)c2ccc(OCC(=O)O)c(Cl)c2Cl)=C2\C=C(c3ccc(Cl)cc3)SS2)=C2/C=C(c3ccc(Cl)cc3)SS2)c(Cl)c1Cl | 14.1 µM (inactive) | 5.37 µM (inactive) | 8.39 µM (inactive) | 0.435 µM (active) | 5.27 µM (inactive) | 31.1 µM (inactive) | 18.2 µM (inactive) | 4.2 µM (inactive) | 9.08 µM (inactive) | 16.7 µM (inactive) | 5.85 µM (inactive) | 4.22 µM (inactive) | 18.1 µM (inactive) | 13.5 µM (inactive) | 0.339 µM (active) | 0.319 µM (active) | – | – | – | – |
| CCN(CC)CCOc1ccc(C(=C2CCCCC2)c2ccc(OCCN(CC)CC)cc2)cc1 | 1.93 µM (inactive) | 1.72 µM (inactive) | 1.75 µM (inactive) | 1.25 µM (inactive) | 2.31 µM (inactive) | 1.78 µM (inactive) | 1.85 µM (inactive) | 1.64 µM (inactive) | 1.25 µM (inactive) | 1.58 µM (inactive) | 1.73 µM (inactive) | 2.02 µM (inactive) | 1.52 µM (inactive) | 1.39 µM (inactive) | 1.34 µM (inactive) | 1.66 µM (inactive) | – | – | – | – |
| COc1cc(C2c3cc4c(cc3[C@@H](Nc3ccc(N)cc3)C3COC(=O)[C@H]23)OCO4)cc(OC)c1O (some centres not stated) | 5.73 µM (inactive) | 6.1 µM (inactive) | 1.25 µM (inactive) | 2.14 µM (inactive) | 24.5 µM (inactive) | 1.18 µM (inactive) | 0.403 µM (active) | 0.401 µM (active) | 2.7 µM (inactive) | 0.918 µM (active) | 2.22 µM (inactive) | 0.948 µM (active) | 0.361 µM (active) | 0.908 µM (active) | 7.85 µM (inactive) | 0.711 µM (active) | 12.3 µM (inactive) | 2.5 µM (inactive) | 0.446 µM (active) | 3.75 µM (inactive) |
